Laboratory results taken from PubChem BioAssay (NCI).
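Interpolation was linear, between the two tested concentrations surrounding the appropriate level; five concentrations were tested over 48 hours in 96-well plates. GI50 is the concentration that inhibits growth by half. Definition used: TGI = concentration required for complete inhibition of growth.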

How the values were obtained:
Test in all cases: growth of human tumour cells (NCI), 48 h
OVCAR-3 ovarian = tested on: OVCAR-3 ovarian
A498 renal = tested on: A498 renal
SR leukemia = tested on: SR leukemia
NCI-H460 lung = tested on: NCI-H460 lung
NCI-H522 lung = tested on: NCI-H522 lung
SK-MEL-5 melanoma = tested on: SK-MEL-5 melanoma
CCRF-CEM leukemia = tested on: CCRF-CEM leukemia
SW-620 colon = tested on: SW-620 colon
HS 578T breast = tested on: HS 578T breast
PC-3 prostate = tested on: PC-3 prostate
OVCAR-5 ovarian = tested on: OVCAR-5 ovarian
HCT-15 colon = tested on: HCT-15 colon
A549 NSCLC = tested on: A549 NSCLC
EKVX NSCLC = tested on: EKVX NSCLC
U251 CNS = tested on: U251 CNS
T-47D breast = tested on: T-47D breast
MCF7 breast = tested on: MCF7 breast
MDA-MB-435 = tested on: MDA-MB-435
SNB-19 CNS = tested on: SNB-19 CNS
HOP-92 NSCLC = tested on: HOP-92 NSCLC
786-0 renal = tested on: 786-0 renal
M14 melanoma = tested on: M14 melanoma
HOP-62 NSCLC = tested on: HOP-62 NSCLC
TK-10 renal = tested on: TK-10 renal
NCI-H23 lung = tested on: NCI-H23 lung
UO-31 renal = tested on: UO-31 renal
MALME-3M melanoma = tested on: MALME-3M melanoma
HCC-2998 colon = tested on: HCC-2998 colon
DU-145 prostate = tested on: DU-145 prostate
MDA-MB-231 breast = tested on: MDA-MB-231 breast
K-562 leukemia = tested on: K-562 leukemia
SF-295 CNS = tested on: SF-295 CNS
RXF 393 renal = tested on: RXF 393 renal
HT29 colon = tested on: HT29 colon
HL-60(TB) leukemia = tested on: HL-60(TB) leukemia
OVCAR-4 ovarian = tested on: OVCAR-4 ovarian
NCI-H226 lung = tested on: NCI-H226 lung
UACC-62 melanoma = tested on: UACC-62 melanoma
SK-MEL-2 melanoma = tested on: SK-MEL-2 melanoma
ACHN renal = tested on: ACHN renal
SF-268 CNS = tested on: SF-268 CNS
SF-539 CNS = tested on: SF-539 CNS
CAKI-1 renal = tested on: CAKI-1 renal
OVCAR-8 ovarian = tested on: OVCAR-8 ovarian
SK-MEL-28 melanoma = tested on: SK-MEL-28 melanoma
MOLT-4 leukemia = tested on: MOLT-4 leukemia
IGROV1 ovarian = tested on: IGROV1 ovarian
RPMI-8226 leukemia = tested on: RPMI-8226 leukemia
SNB-75 CNS = tested on: SNB-75 CNS
HCT-116 colon = tested on: HCT-116 colon
KM12 colon = tested on: KM12 colon
NCI/ADR-RES ovarian = tested on: NCI/ADR-RES ovarian
BT-549 breast = tested on: BT-549 breast
LOX IMVI melanoma = tested on: LOX IMVI melanoma
SN12C renal = tested on: SN12C renal
UACC-257 melanoma = tested on: UACC-257 melanoma
COLO 205 colon = tested on: COLO 205 colon
SK-OV-3 ovarian = tested on: SK-OV-3 ovarian

Cc1cccc2c3c(sc12)C(c1ccc(F)cc1)C(C#N)=C(/N=C/c1ccc(Cl)cc1)O3 (stereo unspecified)
GI50 (OVCAR-3 ovarian): 395 nM
TGI (OVCAR-3 ovarian): 5390 nM
GI50 (A498 renal): 10600 nM
TGI (A498 renal): 42000 nM
GI50 (SR leukemia): 317 nM
TGI (SR leukemia): 13200 nM
GI50 (NCI-H460 lung): 348 nM
TGI (NCI-H460 lung): 3560 nM
GI50 (NCI-H522 lung): 91.3 nM
TGI (NCI-H522 lung): 372 nM
GI50 (SK-MEL-5 melanoma): 488 nM
TGI (SK-MEL-5 melanoma): 3290 nM
GI50 (CCRF-CEM leukemia): 404 nM
TGI (CCRF-CEM leukemia): > 37300 nM
GI50 (SW-620 colon): 383 nM
TGI (SW-620 colon): 13100 nM
GI50 (HS 578T breast): 426 nM
TGI (HS 578T breast): 10300 nM
GI50 (PC-3 prostate): 415 nM
TGI (PC-3 prostate): 13500 nM
GI50 (OVCAR-5 ovarian): 516 nM
TGI (OVCAR-5 ovarian): 15400 nM
GI50 (HCT-15 colon): 366 nM
TGI (HCT-15 colon): 10300 nM
GI50 (A549 NSCLC): 670 nM
TGI (A549 NSCLC): > 100000 nM
GI50 (EKVX NSCLC): 1720 nM
TGI (EKVX NSCLC): 46100 nM
GI50 (U251 CNS): 423 nM
TGI (U251 CNS): 8760 nM
GI50 (T-47D breast): 583 nM
TGI (T-47D breast): 53000 nM
GI50 (MCF7 breast): 322 nM
TGI (MCF7 breast): 14000 nM
GI50 (MDA-MB-435): 175 nM
TGI (MDA-MB-435): 373 nM
GI50 (SNB-19 CNS): 552 nM
TGI (SNB-19 CNS): 19000 nM
GI50 (HOP-92 NSCLC): 2190 nM
TGI (HOP-92 NSCLC): 15800 nM
GI50 (786-0 renal): 601 nM
TGI (786-0 renal): 12500 nM
GI50 (M14 melanoma): 310 nM
TGI (M14 melanoma): 8380 nM
GI50 (HOP-62 NSCLC): 552 nM
TGI (HOP-62 NSCLC): 15100 nM
GI50 (TK-10 renal): 20100 nM
TGI (TK-10 renal): 66200 nM
GI50 (NCI-H23 lung): 536 nM
TGI (NCI-H23 lung): 16400 nM
GI50 (UO-31 renal): 572 nM
TGI (UO-31 renal): 15300 nM
GI50 (MALME-3M melanoma): 720 nM
TGI (MALME-3M melanoma): 23200 nM
GI50 (HCC-2998 colon): 414 nM
TGI (HCC-2998 colon): 2470 nM
GI50 (DU-145 prostate): 485 nM
TGI (DU-145 prostate): 19300 nM
GI50 (MDA-MB-231 breast): 700 nM
TGI (MDA-MB-231 breast): 14800 nM
GI50 (K-562 leukemia): 310 nM
TGI (K-562 leukemia): 14200 nM
GI50 (SF-295 CNS): 339 nM
TGI (SF-295 CNS): 11600 nM
GI50 (RXF 393 renal): 222 nM
TGI (RXF 393 renal): 664 nM
GI50 (HT29 colon): 532 nM
TGI (HT29 colon): 5040 nM
GI50 (HL-60(TB) leukemia): 339 nM
TGI (HL-60(TB) leukemia): 971 nM
GI50 (OVCAR-4 ovarian): 2270 nM
TGI (OVCAR-4 ovarian): 20100 nM
GI50 (NCI-H226 lung): 434 nM
TGI (NCI-H226 lung): 2960 nM
GI50 (UACC-62 melanoma): 354 nM
TGI (UACC-62 melanoma): 13400 nM
GI50 (SK-MEL-2 melanoma): 317 nM
TGI (SK-MEL-2 melanoma): 17800 nM
GI50 (ACHN renal): 695 nM
TGI (ACHN renal): 15500 nM
GI50 (SF-268 CNS): 1830 nM
TGI (SF-268 CNS): 16200 nM
GI50 (SF-539 CNS): 277 nM
TGI (SF-539 CNS): 827 nM
GI50 (CAKI-1 renal): 389 nM
TGI (CAKI-1 renal): 15200 nM
GI50 (OVCAR-8 ovarian): 487 nM
TGI (OVCAR-8 ovarian): 4180 nM
GI50 (SK-MEL-28 melanoma): 1430 nM
TGI (SK-MEL-28 melanoma): 22600 nM
GI50 (MOLT-4 leukemia): 476 nM
TGI (MOLT-4 leukemia): 14200 nM
GI50 (IGROV1 ovarian): 632 nM
TGI (IGROV1 ovarian): 19200 nM
GI50 (RPMI-8226 leukemia): 421 nM
TGI (RPMI-8226 leukemia): 7690 nM
GI50 (SNB-75 CNS): 275 nM
TGI (SNB-75 CNS): 3630 nM
GI50 (HCT-116 colon): 384 nM
TGI (HCT-116 colon): 6300 nM
GI50 (KM12 colon): 417 nM
TGI (KM12 colon): 13200 nM
GI50 (NCI/ADR-RES ovarian): 302 nM
TGI (NCI/ADR-RES ovarian): 3490 nM
GI50 (BT-549 breast): 907 nM
TGI (BT-549 breast): 3560 nM
GI50 (LOX IMVI melanoma): 555 nM
TGI (LOX IMVI melanoma): 6300 nM
GI50 (SN12C renal): 597 nM
TGI (SN12C renal): 12200 nM
GI50 (UACC-257 melanoma): 3810 nM
TGI (UACC-257 melanoma): 32200 nM
GI50 (COLO 205 colon): 648 nM
TGI (COLO 205 colon): 2510 nM
GI50 (SK-OV-3 ovarian): 521 nM
TGI (SK-OV-3 ovarian): 41900 nM
